Columns and labels:
5α-reductase = settings: finasteride 2 mg daily; ref Steiner, 1996; cited from earlier work
[1] = system: endogenous testosterone production; settings: 300 µg/kg subcutaneous, normal healthy men; ref Herbst et al., 2004; cited from earlier work
[2] = Steady-state pharmacokinetics of oral TU alone or with finasteride; assay type: in vivo, men; settings: seventh day of dosing, all treatments (Fig. 2A)

CC(C)(C)NC(=O)[C@H]1CC[C@H]2[C@@H]3CC[C@H]4NC(=O)C=C[C@]4(C)[C@H]3CC[C@]12C [finasteride]
Reduction of circulating levels of DHT (5α-reductase): 50%

acyline
Duration of testosterone suppression [1]: 2 weeks | Time to suppression of testosterone to castrate levels [1]: ≤ 24 h

CCCCCCCCCCC(=O)O[C@H]1CC[C@H]2[C@@H]3CCC4=CC(=O)CC[C@]4(C)[C@H]3CC[C@]12C [TU + placebo, testosterone undecanoate]
Time after dosing at which mean serum testosterone concentrations peaked [2]: 4 h

From paper PMC4269219 (International journal of andrology, 2010)
